Measured values published in patent publication US9693554B2, “Plant growth accelerator” (COSMO OIL CO., LTD., priority 2013, dated 2017).

Assays:
Assay type in all cases: in vivo
Barley = experiment: Growth accelerating effect on barley (pot grown); conditions: 200 L per 10 a, applied 22 days after seeding, measured 35 days after seeding
Procedure: Barley was seeded in a pot and grown. The soil used was black soil. The plants were set at 4 plants/pot and 4 to 6 pots/area. A chemical fertilizer (containing 8% of nitrogen, phosphoric acid and potassium respectively) as a basal fertilizer was applied so that each of nitrogen, phosphoric acid and potassium was 5 kg per 10 a. 22 days after seeding, 200 L per 10 a of aqueous solutions containing 0.006 ppm, 0.06 ppm or 0.6 ppm, of 5-amino-4-hydroxypentanoic acid was applied. 35 days after seeding, the plant height, tillering and dry weight of the above-ground part were measured.

Komatsuna turnip green = experiment: Growth accelerating effect on Komatsuna turnip green (field grown); conditions: 0.06 ppm
Procedure: Komatsuna turnip green was seeded and grown at a field. The soil used was red clay. The plants were set at 40 to 52 plants/section and 2 to 3 sections/area. A coated fertilizer (containing 13% nitrogen, 11% phosphoric acid and 13% potassium) as a basal fertilizer was applied so that nitrogen was 50 kg per 10 a. 22 days after seeding, 1000 L per 10 a of an aqueous solution containing 0.06 ppm of 5-amino-4-hydroxypentanoic acid was applied twice. 42 days after seeding, the fresh weight of the above-ground part was measured.

Radish = experiment: Growth accelerating effect on radish (pot grown); conditions: 200 L per 10 a, applied 15 and 21 days after seeding, measured 28 days after seeding
Procedure: (§1) Radish was seeded in a pot and grown. The soil used was a sterilized compost containing fertilizer components (180 mg/L of nitrogen, 120 mg/L of phosphoric acid, 220 mg/L of potassium). The plants were set at 4 plants/pot and 4 pots/area. 15 days after and 21 days after seeding, 200 L per 10 a of aqueous solutions containing 0.06 ppm or 0.6 ppm of 5-amino-4-hydroxypentanoic acid was applied. 28 days after seeding, the fresh weight of the edible part was measured.

Garland chrysanthemum = experiment: Growth accelerating effect on garland chrysanthemum (pot grown); conditions: 200 L per 10 a, applied 4, 5, 6 and 7 weeks after seeding, measured 8 weeks after seeding
Procedure: as §1, with “Garland chrysanthemum” for “Radish”, “4, 5, 6” for “15 days after”, “7 weeks” for “21 days”, “8 weeks” for “28 days”, “above-ground” for “edible”

Broccoli = experiment: Growth accelerating effect on broccoli (pot grown); conditions: 0.6 ppm
Procedure: Commercial young plants were settled in a pot and grown. The soil used was a sterilized compost containing fertilizer components (180 mg/L of nitrogen, 120 mg/L of phosphoric acid, 220 mg/L of potassium). The plants were set at 1 plant/pot and 4 pots/area. Every week (2 weeks through 10 weeks) after settling, 200 L per 10 a of an aqueous solution containing 0.6 ppm of 5-amino-4-hydroxypentanoic acid was applied. 11 weeks after settling, the fresh weight of the edible part was measured.

SMILES: NCC(O)CCC(=O)O (centres unmarked) [5-amino-4-hydroxypentanoic acid]
- Plant length (average) (Barley; 0.006 ppm aqueous solution): 19.4 cm
- Dry weight of above-ground part (average) (Barley; 0.006 ppm): 103 mg
- Tillering (average) (Barley; 0.006 ppm): 3.50
- Plant length (average) (Barley; 0.06 ppm aqueous solution): 20.1 cm
- Dry weight of above-ground part (average) (Barley; 0.06 ppm): 103 mg
- Tillering (average) (Barley; 0.06 ppm): 3.53
- Plant length (average) (Barley; 0.6 ppm aqueous solution): 20.2 cm
- Dry weight of above-ground part (average) (Barley; 0.6 ppm): 112 mg
- Tillering (average) (Barley; 0.6 ppm): 3.79
- Increase of fresh weight of the above-ground part compared with the control area (Komatsuna turnip green; 42 days after seeding): 19%
- Fresh weight of above-ground part (average) (Komatsuna turnip green; field, 1000 L per 10 a, applied twice, 22 days after seeding, measured 42 days after seeding): 40.6 g
- Fresh weight of edible part (average) (Radish; 0.06 ppm): 2.26 g
- Fresh weight of edible part (average) (Radish; 0.6 ppm): 2.54 g
- Fresh weight of above-ground part (average) (Garland chrysanthemum; 0.06 ppm): 25.5 g
- Fresh weight of above-ground part (average) (Garland chrysanthemum; 0.6 ppm): 24.8 g
- Increase of fresh weight of the edible part compared with the control area (Broccoli; 11 weeks after settling): 6%
- Fresh weight of edible part (average) (Broccoli; 200 L per 10 a, applied every week (2 through 10 weeks) after settling, measured 11 weeks after settling): 39.2 g
